Blank lines part the entries; values can stand above or below the molecule they belong to.
What was measured:
rACD5 = biological target: T1, rACD5 (Arabidopsis thaliana, UniProt Q6USK2); assay: TLC with NBD fluorescence scan, turnover; type: biochemical; conditions: ATP 1 mM, 15 mM MgCl2, mixed micelles, 40 °C, 30 min; labelled compound
T1 construct: gene CERK; coding region in pET28b, His-tagged, E. coli BL21 (DE3), Ni-NTA; N-terminus from primer MEEGRDDE
T1 sequence (Q6USK2 1-608): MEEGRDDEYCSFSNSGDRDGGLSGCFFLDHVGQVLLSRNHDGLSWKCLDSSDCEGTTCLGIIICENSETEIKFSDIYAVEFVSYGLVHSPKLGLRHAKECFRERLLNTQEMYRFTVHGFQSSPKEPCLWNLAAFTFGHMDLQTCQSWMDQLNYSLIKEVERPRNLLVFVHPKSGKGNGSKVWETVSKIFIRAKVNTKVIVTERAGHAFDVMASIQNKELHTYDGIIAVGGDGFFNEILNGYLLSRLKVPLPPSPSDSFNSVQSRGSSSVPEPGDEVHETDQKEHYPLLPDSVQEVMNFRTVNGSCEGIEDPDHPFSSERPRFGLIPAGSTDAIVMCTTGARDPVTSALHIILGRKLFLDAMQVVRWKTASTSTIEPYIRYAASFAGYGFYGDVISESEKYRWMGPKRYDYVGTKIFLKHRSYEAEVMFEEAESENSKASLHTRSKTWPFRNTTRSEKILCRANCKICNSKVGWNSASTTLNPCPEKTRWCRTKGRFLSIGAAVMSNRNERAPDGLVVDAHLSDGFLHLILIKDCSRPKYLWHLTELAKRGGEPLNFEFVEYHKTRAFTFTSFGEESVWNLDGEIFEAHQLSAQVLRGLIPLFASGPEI

OsCERK = biological target: T2, OsCERK (Oryza sativa, UniProt C0LT23); assay: TLC with NBD fluorescence scan, inhibition of C6-NBD-ceramide phosphorylation; type: biochemical
T2 construct: gene CERK; N-terminus from primer MEGGGEAL
T2 sequence (C0LT23 1-607): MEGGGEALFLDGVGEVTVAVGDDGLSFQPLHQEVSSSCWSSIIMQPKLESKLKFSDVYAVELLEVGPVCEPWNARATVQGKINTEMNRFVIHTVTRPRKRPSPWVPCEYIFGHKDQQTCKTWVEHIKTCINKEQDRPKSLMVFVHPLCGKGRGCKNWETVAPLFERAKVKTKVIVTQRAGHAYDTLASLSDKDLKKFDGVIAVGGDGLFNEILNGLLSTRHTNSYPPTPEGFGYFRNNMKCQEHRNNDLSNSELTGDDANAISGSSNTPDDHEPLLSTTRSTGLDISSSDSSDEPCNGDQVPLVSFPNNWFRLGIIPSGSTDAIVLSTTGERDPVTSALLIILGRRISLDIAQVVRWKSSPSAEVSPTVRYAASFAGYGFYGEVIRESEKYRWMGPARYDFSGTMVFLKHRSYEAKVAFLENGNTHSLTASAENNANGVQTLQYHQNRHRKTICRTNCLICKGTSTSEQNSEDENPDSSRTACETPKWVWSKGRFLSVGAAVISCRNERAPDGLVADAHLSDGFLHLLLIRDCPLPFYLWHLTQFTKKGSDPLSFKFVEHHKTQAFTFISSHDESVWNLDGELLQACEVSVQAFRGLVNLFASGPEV

[1] = substrate: Nc1ncnc2c1ncn2[C@@H]1O[C@H](COP(=O)(O)OP(=O)(O)OP(=O)(O)O)[C@@H](O)[C@H]1O; assay: TLC with NBD fluorescence scan, Lineweaver-Burk; type: biochemical, Oryza sativa; conditions: co-substrate C6-NBD-ceramide, 15 mM MgCl2, mixed micelles, Hepes pH 7.4, 40 °C, Discussion b40 prints 36.35 µM
[2] = substrate: CCCCCCCCCCCCC/C=C/[C@@H](O)[C@H](CO)NC(=O)CCCCCNc1ccc([N+](=O)[O-])c2nonc12; assay: TLC with NBD fluorescence scan, Lineweaver-Burk; type: biochemical, Oryza sativa; conditions: ATP 1 mM, 15 mM MgCl2, Triton X-100/cardiolipin mixed micelles, Hepes pH 7.4, 40 °C, labelled compound

Molecule: CCCCCCCCCCCCC/C=C/[C@@H](O)[C@H](CO)NC(=O)CCCCCNc1ccc([N+](=O)[O-])c2nonc12 [D-erythro-C6-NBD-ceramide]
TLC with NBD fluorescence scan, turnover (rACD5): phosphorylating C6-NBD-ceramide to give C6-NBD-ceramide-1-phosphate, as did recombinant OsCERK and rACD5

% inhibition at 200 μM (OsCERK; C6-NBD-ceramide, ATP, 15 mM MgCl2, mixed micelles, 40 °C, 0.5% ethanol or methanol as solvent): > 90%
Molecule: O=C(Nc1nc2ccc(NC(=O)C34CC5CC(CC(C5)C3)C4)cc2s1)c1ccccc1 [ceramide kinase inhibitor K1]

inhibition at 100 µM (OsCERK): ~70%
Molecule: CCCCCCCCCCCCC/C=C/[C@@H](O)[C@H](CO)N(C)C [N,N-dimethylsphingosine]

B1: OsCERK (Oryza sativa Japonica Group) (protein)
chain: T2 sequence (C0LT23 1-607)
notes: N-terminus from primer MEGGGEAL
Km [1]: 35.36 µM | Km [2]: 4.1 µM
